In US11491224B2, “Bladder cancer photodynamic therapeutic agents with off-on magnetic resonance imaging enhancement” (Hong Kong Baptist University, priority 2018, dated 2022):
Where two headings read alike, the source gives them in different places.

Legend:
[1] = T1 and T2 relaxivity measurements; format: physicochemical
Protocol: t1 relaxivity of the proposed MR-available PDT agent—NLPor-Gd-L1Rn (n=1 to 3) was measured. […] Without wishing to be bound by theory, this difference in relaxivity could be due to the different coordinative numbers of them: for NLPor-Gd-L1Rn, (n=1 to 3) the coordinative protection for the central Gd^3+ ion is better than that of Gd-DOTA, so the Gd^3+ ion in NLPor-Gd-L1Rn (n=1 to 3) has less chance to exchange with water protons compared to Gd-DOTA. The responsive t1 of NLPor-Gd-L1Rn (n=1-3) have been evaluated with the addition of different concentrations of αvβ3 integrin. […] (FIG. 6). When the αvβ3 integrin (targeting) binding might readily interact with two molecules and affect t1 relaxivity from 2nd or outer coordination spheres. The t1 relaxivity of NLPor-Gd-L1R3 is enhanced from 0.2847 mM^−1s^−1 to 3.225 mM^−1s^−1 with the addition of αvβ3 integrin.
t1 relaxivity of the proposed MR-available PDT agent—M-NLPor-Cyc-L2An (n=1 or 2) was measured. […]
The absorption and emission spectra of Zn-NLPorB2-Cyc-Gd-L2A2 and its precursor without Gd, Zn-NLPorB2-Cyc-L2A2 were measured in aqueous solution (FIGS. 54b and 54c). […] The singlet oxygen quantum yields (ΦΔ) of Zn-NLPorB2-Cyc-Gd-L2A2 and Zn-NLPorB2-Cyc-L2A2 were measured in CHCl3 and calculated by comparing to a reference compound tetraphenylporphyrin, H2TPP, (ΦΔ=0.55 in CHCl3). […]

[2] = system: T24 bladder cancer xenografts; conditions: 100 μmol/kg (0.1 mmol/kg gadolinium), tail vein injection
Protocol: MRI signal enhancement was assessed by performing in vivo MRI measurements in three BALB/c nude mice bearing T24 bladder cancer xenografts. Three tumor models were developed by subcutaneous injection of T24 bladder cancer cells. […] MR images were acquired before and after tail vein injection of 200 μl of each sample at various time points.
MR images were acquired before and after 200 μL tail vein injection of each subject at various times.

[3] = in PBS buffer, reference value; cited from earlier work

| SMILES | T1 relaxivity ([1]; 1.4T in water with 3% DMSO, 37° C.) [mM⁻¹ s⁻¹] | T1 relaxivity (r1) ([1]; 1.5 T in water (3% DMSO)) [mM⁻¹ s⁻¹] | post-injection MRI signal enhancement [2] | post-injection MRI signal enhancement ([2]; listed as GdDOTA) | singlet oxygen quantum yield of reference (ΦRB) [3] |
| --- | --- | --- | --- | --- | --- |
| O=C([O-])CN1CCN(CC(=O)[O-])CCN(CC(=O)O)CCN(CC(=O)[O-])CC1.[Gd+3] [Gd-DOTA, reference compound] | 2.92 | 2.92 | weak post-injection signal enhancement | Weak post injection signal enhancement |  |
| O=C1OC2(c3cc(I)c(O)c(I)c3Oc3c2cc(I)c(O)c3I)c2c(Cl)c(Cl)c(Cl)c(Cl)c21 [RB, Rose Bengal] |  |  |  |  | 0.75 |
